Data published in patent US5932575A, “Cardiac diseases improving agents” (Kureha Chemical Industry Co., Ltd., priority 1997, dated 1999).
“And” between values parts separate entries of the source, which are not always exact repeats. Equal values may be shown once. Blank lines part the entries; values can stand above or below the compound they belong to.

Key:
ICR mice = test: Acute toxicity (oral, single dose); assay type: in vivo; conditions: 500 mg/kg oral once, 0.5% methylcellulose, after six days
Method: Female 5-week-old ICR mice were divided to groups each having five animals and acclimated for a week. Compound Nos. 1-3, 7, 8, 11 and 13 each was dissolved or dispersed in 0.5% methylcelulose aqueous solution, respectively, and orally administered once at a dose of 500 mg/kg, then the number of dead animals was counted after six days.

type 2 (AT2) receptor = target: T1, type 2 (AT2) receptor (Bos taurus, UniProt G5E6F7); test: Affinity to angiotensin II type 2 receptor (binding assay); design: species or system bovine; conditions: 37° C., one hour
T1 construct: Receptor: Derived from bovine cerebellum; from tissue; host or cells: bovine cerebellum
T1 sequence (G5E6F7 1-362): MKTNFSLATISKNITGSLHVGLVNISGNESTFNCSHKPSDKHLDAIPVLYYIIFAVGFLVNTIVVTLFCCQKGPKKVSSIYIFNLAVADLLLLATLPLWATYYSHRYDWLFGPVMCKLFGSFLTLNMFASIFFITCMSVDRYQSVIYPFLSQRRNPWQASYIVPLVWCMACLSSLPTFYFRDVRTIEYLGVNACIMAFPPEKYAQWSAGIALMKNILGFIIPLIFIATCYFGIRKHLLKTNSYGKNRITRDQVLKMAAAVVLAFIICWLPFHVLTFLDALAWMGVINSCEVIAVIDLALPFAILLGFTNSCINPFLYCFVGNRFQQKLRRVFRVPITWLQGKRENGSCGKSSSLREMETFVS
Method: Practically, determination of total binding of each compound was carried out as follows. A mixture of 0.025 ml of a predetermined concentration of test compound prepared by dissolving in DMSO, dilution with a buffer attached to the drug discovery system to 2-fold solution, 0.025 ml of a tracer and 0.2 ml of a receptor to make total volume of 0.25 ml was incubated at room temperature for three hours for type 1 angiotensin II (AT1) receptor or at 37° C. for one hour for type 2 (AT2) receptor. The reaction mixture was filtered under suction with CF/C filter paper for AT1 and CF/B filter paper for AT2. The used filter paper having the combination of the tracer and the receptor was determined with a γ-well counter (ARC-500, Aloka). Non-specific binding was determined with a similar manner by adding a large excess amount of displacer. The specific binding of test compound at a predetermined concentration was obtained by subtracting non-specific binding from respective total binding. In AT1, and AT2, a predetermined concentrations of test compound and a control compound were used to give the inhibitory rate, IC50 value of 50% inhibition, or binding inhibitory % at 100 μM, for binding of a radioactive ligand (tracer) and the receptor.
Receptor: Derived from bovine cerebellum
Tracer: ^125 ITyr^4angiotensin II
Control compound: Angiotensin II (human)
(Displacer): Angiotensin II (human)

rats with renal diseases [1] = test: Hypotensive action in rats with experimental renal disease (tail cuff); assay type: in vivo, rats (female Sprague-Dawley)
Method: The compounds of the present invention and a comparative compound, Dup 753, were orally administered by gavage to rats with renal diseases and hypotensive action was determined. Rats with experimental renal disease were prepared with conventional method by ligating branch of renal artery. That is, female Sprague-Dawley rats were anesthetized, left renal hilus was exposed and three of four second branches of renal artery were ligated remaining one branch. One week later, further right renal hilus including artery, vein and ureter was ligated to reduce renal function up to about 1/8 to those of normal animals. Rats were divided to make eight animals in one group, and 20 mg/kg of one test compound and water as a control were administered to each group. After two days, systolic blood pressure was determined with a blood pressure determination apparatus using tail cuff method (UR5000, Ueda Manufacturing Co., Ltd.).

angiotensin II receptor = conditions: cited from earlier work
[2] = system: angiotensin converting enzyme (ACE); conditions: cited from earlier work
[3] = system: SHR rats, 3/4NPX cardiac hypertrophy model; test: Inhibitory action of myocardial disturbance, Test 1 (3/4NPX cardiac hypertrophy model); assay type: in vivo
Method: SHR rats were divided into control group and test group each having three animals and both groups were treated with 3/4NPX, an experimental cardiac hypertrophy model prepared by 3/4 partial nephrectomy, after eight weeks. […] After the oral administration,kidneys and heart were excised and their weight was determined.

[4] = system: SHR rats, 3/4 NPX cardiac hypertrophy model; test: Inhibitory action of myocardial disturbance, Test 2 (3/4 NPX cardiac hypertrophy model); assay type: in vivo
Method: Similarly, 3/4 NPX (cardiac hypertrophy model caused by 3/4 partial nephrectomy) was carried out at four weeks point in a control group and test group of SHR rats each having two and three animals. […] After 11 weeks, kidneys and heart were excised and their weight was determined.

rats with renal diseases [5] = conditions: J. Pharmacol. Exp. Ther., 267: 657-663, 1993; cited from earlier work
[6] = J. Clin. Pharmacol., 30:155-158, 1990
[7] = test group average, 20 mg/kg in drinking water four weeks, after 16 weeks
[8] = test group individual animals 1-3 in order, 20 mg/kg, after 16 weeks, 20 mg/kg
[9] = test group average, 20 mg/kg in drinking water, after 9 weeks
[10] = test group average, 20 mg/kg in drinking water, after 11 weeks
[11] = test group individual animals 1-3 in order, 20 mg/kg, after 9 weeks, 20 mg/kg
[12] = test group individual animals 1-3 in order, 20 mg/kg, after 11 weeks, 20 mg/kg

Compound: CCCCC(=O)N(Cc1ccc(C(=O)O)cc1)c1cc(C(=O)N2CCOCC2)ccc1C [Compound No. 8, 4-Methyl-3-N-[[4-(carboxyphenyl)methyl]valeramido]benzoic acid morpholide]
number of dead animals (ICR mice): No dead animals was found

inhibition at 100 µM (type 2 (AT2) receptor): 0%
Compound: CCCCc1nc(Cl)c(CO)n1Cc1ccc(-c2ccccc2-c2nnn[nH]2)cc1 [DuP753, 2-butyl-4-chloro-5-(hydroxymethyl)-1-[[2'-(1H-tetrazol-5-yl)biphenyl-4-yl]methyl]imidazole]
Blood pressure (average systolic) (rats with renal diseases [1]; 20 mg/kg oral gavage, after two days, control (water) 210): 130 mmHg
effect on blood pressure (in words) (rats with renal diseases [1]; 20 mg/kg oral, compared with control group): marked hypotension
antagonistic action to angiotensin II receptor (in words) (angiotensin II receptor): potent antagonistic action to angiotensin II receptor

Compound: CCCCC(=O)N(Cc1ccc(-c2nn[nH]n2)cc1)c1cc(C(=O)N2CCOCC2)ccc1N(C)C [Compound No. 13, 4-Dimethylamino-3-N-[[4-(1H-tetrazol-5-yl)phenylmethyl]valeramido]benzoic acid morpholide]
number of dead animals (ICR mice): No dead animals was found

Compound: C[C@H](CS)C(=O)N1CCC[C@H]1C(=O)O [Captopril]
blood pressure (in words) [2, 6]: lower blood pressure
adverse reactions (in words) [2]: dry cough or adverse reaction of acute renal failure

Compound: CCCCC(=O)N(Cc1ccc(-c2ccccc2-c2nn[nH]n2)cc1)c1cc(C(=O)N2CCOCC2)ccc1N(C)C [Compound No. 11]
number of dead animals (ICR mice): No dead animals was found

Compound: CCCCC(=O)N(Cc1ccc(C(=O)OCCN(C)C)cc1)c1cc(C(=O)N2CCOCC2)ccc1N(C)C [Compound No. 1, 4-dimethylamino-3-N-[[[4-(2'-dimethylaminoethoxycarbonyl)phenyl]-methyl]valeramido]benzoic acid morpholide]
cardiac disturbance (in words) ([3]; Test 1, 20 mg/kg): inhibited cardiac disturbance
heart weight (in words) ([3]; Test 1, 20 mg/kg): decrease of heart weight due to cardiac hypertrophy
hypotension or kidney disturbance (in words) ([3]; Test 1, 20 mg/kg): without inducing hypotension or kidney disturbance
kidney weight (in words) ([3]; Test 1, 20 mg/kg): decreased inhibition of kidney weight increase
BP: blood pressure, average [3, 7]: 232 mmHg
BUN: blood urea nitrogen, average [3, 7]: 58 mg/dL
BW: body weight, average [3, 7]: 385 g
CCr: creatinine clearance, average [3, 7]: 0.76 mL/min
Cr: blood creatinine, average [3, 7]: 1.0 mg/dL
HW: heart weight, average [3, 7]: 1.493 g
KW: kidney weight, average [3, 7]: 1.451 g
RW: relative weight (heart), average [3, 7]: 0.388%
RW: relative weight (kidney), average [3, 7]: 0.376%
U-Pro.: urinary protein, average [3, 7]: 114.6 mg/day
BP: blood pressure, individual animal [3, 8]: 247 mmHg and 221 mmHg and 229 mmHg
BUN: blood urea nitrogen, individual animal [3, 8]: 55 mg/dL and 50 mg/dL and 70 mg/dL
BW: body weight, individual animal [3, 8]: 415 g and 346 g and 394 g
CCr: creatinine clearance, individual animal [3, 8]: 0.88 mL/min and 0.74 mL/min and 0.66 mL/min
Cr: blood creatinine, individual animal [3, 8]: 1.0 mg/dL and 0.9 mg/dL and 1.2 mg/dL
HW: heart weight, individual animal [3, 8]: 1.546 g and 1.326 g and 1.606 g
KW: kidney weight, individual animal [3, 8]: 1.515 g and 1.269 g and 1.568 g
RW: relative weight (heart), individual animal [3, 8]: 0.373% and 0.383% and 0.408%
RW: relative weight (kidney), individual animal [3, 8]: 0.365% and 0.366% and 0.398%
U-Pro.: urinary protein, individual animal [3, 8]: 119.8 mg/day and 50.5 mg/day and 174.6 mg/day
heart weight (in words) ([4]; Test 2, 20 mg/kg): declined heart weight
myocardial disturbance (in words) ([4]; Test 2, 20 mg/kg): inhibition of myocardial disturbance
urinary protein (in words) ([4]; Test 2, 20 mg/kg): significant decrease of urinary protein
BP: blood pressure, average [4, 9]: 214 mmHg
BUN: blood urea nitrogen, average [4, 9]: 44 mg/dL
BW: body weight, average [4, 9]: 258 g
CCr: creatinine clearance, average [4, 9]: 0.64 mL/min
Cr: blood creatinine, average [4, 9]: 0.7 mg/dL
U-Pro.: urinary protein, average [4, 9]: 43.3 mg/day
BP: blood pressure, average [4, 10]: 237 mmHg
BUN: blood urea nitrogen, average [4, 10]: 56 mg/dL
BW: body weight, average [4, 10]: 286 g
CCr: creatinine clearance, average [4, 10]: 0.67 mL/min
Cr: blood creatinine, average [4, 10]: 0.8 mg/dL
HW: heart weight, average [4, 10]: 1.078 g
KW: kidney weight, average [4, 10]: 1.350 g
RW: relative weight (heart), average [4, 10]: 0.378%
RW: relative weight (kidney), average [4, 10]: 0.473%
U-Pro.: urinary protein, average [4, 10]: 65.4 mg/day
BP: blood pressure, individual animal [4, 11]: 205 mmHg and 219 mmHg and 214 mmHg
BUN: blood urea nitrogen, individual animal [4, 11]: 41 mg/dL and 45 mg/dL and 47 mg/dL
BW: body weight, individual animal [4, 11]: 263 g and 254 g and 256 g
CCr: creatinine clearance, individual animal [4, 11]: 0.83 mL/min and 0.51 mL/min and 0.58 mL/min
Cr: blood creatinine, individual animal [4, 11]: 0.6 mg/dL and 0.8 mg/dL
U-Pro.: urinary protein, individual animal [4, 11]: 38.7 mg/day and 41.5 mg/day and 49.8 mg/day
BP: blood pressure, individual animal [4, 12]: 217 mmHg and 259 mmHg and 234 mmHg
BUN: blood urea nitrogen, individual animal [4, 12]: 44 mg/dL and 50 mg/dL and 58 mg/dL
BW: body weight, individual animal [4, 12]: 299 g and 271 g and 287 g
CCr: creatinine clearance, individual animal [4, 12]: 0.79 mL/min and 0.55 mL/min and 0.67 mL/min
Cr: blood creatinine, individual animal [4, 12]: 0.7 mg/dL and 0.8 mg/dL and 1.0 mg/dL
HW: heart weight, individual animal [4, 12]: 1.113 g and 1.018 g and 1.106 g
KW: kidney weight, individual animal [4, 12]: 1.364 g and 1.319 g and 1.368 g
RW: relative weight (heart), individual animal [4, 12]: 0.372% and 0.376% and 0.385%
RW: relative weight (kidney), individual animal [4, 12]: 0.456% and 0.487% and 0.477%
U-Pro.: urinary protein, individual animal [4, 12]: 46.9 mg/day and 40.5 mg/day and 108.7 mg/day

Compound: CCCN(Cc1ccc(-c2ccccc2-c2nnn[nH]2)cc1)c1ncccc1C(=O)O [A-81988, 2-[N-propyl-N-[[2'-(1H-tetrazol-5-yl)biphenyl-4-yl]methyl]amino]-pyridine-3-carboxylic acid]
hypotension (in words) (rats with renal diseases [5]): accompanied with hypotension
proteinuria (in words) (rats with renal diseases [5]): improvement in proteinuria

Compound: CCOC(=O)[C@H](CCc1ccccc1)N[C@@H](C)C(=O)N1CCC[C@H]1C(=O)O [Enalapril]
blood pressure (in words) [2, 6]: lower blood pressure
renal dysfunction (in words) [2, 6]: improve the progress of renal dysfunction
adverse reactions (in words) [2]: dry cough or adverse reaction of acute renal failure

Compound: CCCCC(=O)N(Cc1ccc(C(=O)O)cc1)c1cc(C(=O)N2CCOCC2)ccc1N(C)C [Compound No. 7, 3-N-[[(4-Carboxyphenyl)methy)valeramido]-4-dimethylaminobenzoic acid morpholide]
number of dead animals (ICR mice): No dead animals was found
